{"source": "patent US10653672B2", "about": "“Myogenesis promotor, muscle atrophy inhibitor, medical composition and TAZ activator” (National University Corporation Tokyo Medical and Dental …, priority 2014, dated 2020)", "key": {"C2C12 cells": {"system": "C2C12 cells", "assay": "Muscle formation in C2C12 cells with or without TAZ knockdown (anti-MHC immunostaining, immunoblotting)", "format": "cell-based, mouse", "conditions": "C2C12 cells with TAZ not knocked down (si Cont); 10 μM; 72 hours", "description": "(2) C2C12 cells with TAZ knocked down by a method described in Sci Signal 2:ra59 (si TAZ) and C2C12 cells with TAZ not knocked down (si Cont) were cultured for 72 hours in a culture medium added with IBS008738 or DMSO at a concentration of 10 μM, respectively, and were immunostained with an anti-MHC antibody (the white portion in FIG. 3B, the bar is 100 μm). Further, immunoblotting was performed with an anti-MHC antibody and an anti-TAZ antibody (see FIG. 3C). […] Further, the expression of MHC was lost by the knockdown of TAZ.\nHuman TAZ and mouse TAZ were knocked down in MCF10A cells and C2C12 cells as described previously (Ikeda M et al., Sci Signal 2:ra59). The double strand (ds) RNAs used are human TAZ (Ambion s24789) and mouse TAZ (Dharmacon siRNA D-041057)."}, "TEAD reporter": {"system": "TEAD reporter", "assay": "Luciferase reporter assay, TEAD reporter", "format": "cell-based", "conditions": "Mus musculus, C2C12, 24 h, C2C12 cells expressing reporter and TAZ WT, differentiation medium 24 hours", "description": "(§1) The effect and its degree on the activity of a reporter, derived from a transcription factor that interacts with TAZ in C2C12 cells, were evaluated. Specifically, C2C12 cells expressing luciferase reporters corresponding to MyoD, TEAD, SMAD and Pax3 and C2C12 cells expressing these luciferase reporters and TAZ were cultured in a culture medium added with IBS008738 or DMSO at a concentration of 10 μM, respectively. […] The line and the error bar indicate the average value and the standard error, *p<0.05, **p<0.01, ns refers to not significant.\n(§2) Transfection of the luciferase reporters was performed to the C2C12 cells after being plated at 12-well plates (1×10^5 cells/well) and cultured overnight. As the luciferase reporters, pGL3 Myo-184- (MyoD-), 8×GT-IIC-δ51LucII- (TEAD-), 9×CAGA-MLP-(SMAD-), and p(PRS-1/-4)3- (Pax3-) were transfected to the cells alone or with TAZ. These reporter vectors were from Keiji Miyazawa (Yamanashi University), Hiroshi Sasaki (Kumamoto University) and Hiroki Kurihara (The University of Tokyo).\n(§3) Immediately after the transfection, DMSO or IBS008738 was added at a concentration of 10 μM, respectively. After growing the cells to confluence, the cells were transferred to a differentiation medium with DMSO or IBS008738, and cultured for 24 hours before the luciferase assay."}, "cyclin D1": {"system": "cyclin D1", "assay": "Quantitative real-time PCR, cyclin D1", "format": "cell-based, mouse", "conditions": "C2C12 cells, 10 μM; for Normarized mRNA abundance, CyclinD1: listed as IBS008738", "description": "(§4) (1) Quantitative real-time PCR was performed with C2C12 cells immediately before the induction of muscle formation (0 h), and after culturing under differentiation condition in a culture medium added with IBS008738 or DMSO at a concentration of 10 μM for 24 hours (24 h) and 72 hours (72 h), respectively. […] The line and error bar indicate the average value and the standard error, **p<0.05, and ns refers to not significant.\n(§5) (2) Evaluation was also performed under the same condition on the connective tissue growth factor (CTGF) and cyclin D1, as TAZ targets in epidermal cells.\n(§6) The quantitative real-time PCR was performed with SYBER Green (Roche) and ABI7500 Realtime PCR system (Applied Biosystems)."}, "MyoD reporter": {"system": "MyoD reporter", "assay": "Luciferase reporter assay, MyoD reporter", "format": "cell-based", "conditions": "Mus musculus, C2C12, 24 h, C2C12 cells expressing reporter and TAZ WT, differentiation medium 24 hours", "description": "as §1, §2, §3"}, "[1]": {"system": "connective tissue growth factor (CTGF)", "assay": "Quantitative real-time PCR, CTGF", "format": "cell-based, mouse", "conditions": "C2C12 cells, 10 μM; for Normarized mRNA abundance, CTGF: listed as IBS008738", "description": "as §4, §5, §6"}, "caveolin 3": {"system": "caveolin 3", "assay": "Quantitative real-time PCR, caveolin 3", "format": "cell-based, mouse", "conditions": "C2C12 cells, 10 μM; for Normarized mRNA abundance, Caveolin3: listed as IBS008738", "description": "as §4\nEvaluation was also performed under the same condition on M-cadherin, calpain 1 and caveolin 3, which are myofusion markers. As a result, there was no increase in the degree of gene transcription in the case with IBS008738.\nas §6"}}, "note": "Values joined by “and” are separate entries in the source; they are usually repeats but may differ in a detail not shown here. Identical values can stand only once.", "data": [{"smiles": "Cc1ccc(-n2cnc(/N=C/N3CCOCC3)c2C(=O)c2ccccc2)cc1", "note": "[exemplary compound 1]", "values": [{"measurement": "muscle formation", "setting": "C2C12 cells", "value": "promoted muscle formation"}, {"measurement": "fold induction at 10 µM", "setting": "TEAD reporter", "value": 8.41}, {"measurement": "gene transcription of cyclin D1 compared with DMSO", "setting": "cyclin D1; 24 h and 72 h", "value": "no significant difference"}, {"measurement": "Normarized mRNA abundance, CyclinD1", "setting": "cyclin D1; differentiation condition 24 h", "value": "0.95 and 0.83 and 0.78"}, {"measurement": "Normarized mRNA abundance, CyclinD1", "setting": "cyclin D1; differentiation condition 72 h", "value": "0.62 and 0.60 and 0.61"}, {"measurement": "fold induction at 10 µM", "setting": "MyoD reporter", "value": 6.92}, {"measurement": "gene transcription of CTGF compared with DMSO", "setting": "[1]; 24 h and 72 h", "value": "no significant difference"}, {"measurement": "Normarized mRNA abundance, CTGF", "setting": "[1]; differentiation condition 24 h", "value": "0.32 and 0.30 and 0.25"}, {"measurement": "Normarized mRNA abundance, CTGF", "setting": "[1]; differentiation condition 72 h", "value": "1.76 and 2.01 and 2.04"}, {"measurement": "degree of gene transcription of caveolin 3", "setting": "caveolin 3; 24 h and 72 h", "value": "no increase"}, {"measurement": "Normarized mRNA abundance, Caveolin3", "setting": "caveolin 3; differentiation condition 24 h", "value": "0.14 and 0.13"}, {"measurement": "Normarized mRNA abundance, Caveolin3", "setting": "caveolin 3; differentiation condition 72 h", "value": "2.08 and 2.47 and 2.09"}]}]}
